Patent publication US10301320B2, “Compositions and methods of modulating 15-PGDH activity” (CASE WESTERN RESERVE UNIVERSITY, priority 2012, dated 2019)

Columns and labels:
C57BL/6J mice [1] = assay: Survival after whole body irradiation; type: in vivo
A549 cells = assay: PGE2 levels in medium of IL1-beta stimulated A549 cells; type: cell-based
C57BL/6J mice [2] = assay: Survival after 11 Gy irradiation and bone marrow allograft; type: in vivo
Source text: The experimental design is depicted in FIG. 50.
Under the conditions of the mouse colony during this study, control mice receiving 100,000-500,000 cells are all dead between days 4-13 of study. […] Such activity would be of particular utility in settings, such as transplantation with umbilical cord stem cells, in which donor cell numbers are limited.

[3] = system: CD45.2 marked C57BL/6J donor marrow in lethally irradiated CD45.1 mice; assay: Competitive bone marrow transplant, chimerism; type: in vivo; details: donor 5 mg/kg IP daily for 3 doses; weeks 12 and 16
Protocol: On day 3 mice were sacrificed, marrow flushed and mixed at a 1:1 ratio with vehicle treated CD45.1 marrow. 2 million whole BM cells were injected into the tail vein of lethally irradiated CD45.1 mice and percent chimerism measured via flow cytometry at weeks 8, 12, 16.

[4] = system: V9m reporter cell line expressing a 15-PGDH luciferase fusion construct; assay: 15-PGDH-luciferase fusion gene reporter induction, V9m cell line; type: cell-based; details: […], % increased luciferase activity over basal level
Source text: These cell lines are Vaco-9m (V9m), LS174T, Vaco503 (V503). […] Value of 1.0 on the Y-axis is the basal level of reporter activity in cells treated with drug free DMSO vehicle.
This Example provides data on a group of structural analogues of SW033291. Data provided includes level of induction of a 15-PGDH-luciferase fusion gene reporter, recorded as % increased luciferase activity over basal level, in three colon cancer cell lines, V9m, V503, and LS174T, engineered to contain the reporter, and treated with either 2.5 uM or 7.5 uM compound (i.e., Values are recorded on a scale where 100 indicates of doubling of luciferase activity over baseline level).
FIGS. 27(A-C) show graphs that show the level of compound's activity in inducing the 15-PGDH-luciferase fusion reporter in three different test cell line backgrounds, V9m, LS174T, and V503. Each compound was tested at two concentrations, 2.5 uM, and 7.5 uM. Y-axis is luciferase activity.
Data provided include level of induction of a 15-PGDH-luciferase fusion gene reporter, recorded as % induction of luciferase activity over basal level, in three colon cancer cell lines, V9m, V503, and LS174T, engineered to contain the reporter, and treated with either 2.5 uM or 7.5 uM compound. […] Additionally, for selected compounds is recorded the decrease in PGE2 levels in the media of compound treated A549 cells that have been stimulated with IL-1 beta. Additionally recorded for selected compounds is the effect on A549 cell viability as measured by a CellTiter-Glo assay, and the effect of compounds on A549 cell colony formation.

SMILES: CCCC[S+]([O-])c1sc2nc(-c3cccs3)cc(-c3ccccc3)c2c1N (centres unmarked) [SW033291, 2-(butylsulfinyl)-4-phenyl-6-(thiophen-2-yl)thieno[2,3-b]pyridin-3-amine]
- Survival longer than vehicle control (C57BL/6J mice [1]; 11 Gy, 5 mg/kg IP daily for 7 doses): 48 h
- Survival longer than vehicle control, on average (C57BL/6J mice [1]; 11 Gy, any of the dosing schedules): 1 to 2 days
- Number of mice surviving (C57BL/6J mice [1]; Table 7, 7 Gy, Day 5): 3
- Number of mice surviving (C57BL/6J mice [1]; Table 7, 7 Gy, Day 6): 3
- Number of mice surviving (C57BL/6J mice [1]; Table 7, 7 Gy, Day 7): 3
- Number of mice surviving (C57BL/6J mice [1]; Table 7, 7 Gy, Day 8): 3
- Number of mice surviving (C57BL/6J mice [1]; Table 7, 7 Gy, Day 9): 3
- Number of mice surviving (C57BL/6J mice [1]; Table 7, 7 Gy, Day 10): 3
- Number of mice surviving (C57BL/6J mice [1]; Table 7, 7 Gy, Day 11): 3
- Number of mice surviving (C57BL/6J mice [1]; Table 7, 7 Gy, Day 12): 3
- Number of mice surviving (C57BL/6J mice [1]; Table 7, 7 Gy, Day 13): 3
- Number of mice surviving (C57BL/6J mice [1]; Table 7, 7 Gy, Day 14): 3
- Number of mice surviving (C57BL/6J mice [1]; Table 7, 7 Gy, Day 15): 3
- Condition of surviving mice (C57BL/6J mice [1]; Table 7, 7 Gy, Day 25 (Looks Healthy)): Healthy
- Number of mice surviving (C57BL/6J mice [1]; Table 7, 9 Gy, Day 5): 3
- Number of mice surviving (C57BL/6J mice [1]; Table 7, 9 Gy, Day 6): 3
- Number of mice surviving (C57BL/6J mice [1]; Table 7, 9 Gy, Day 7): 3
- Number of mice surviving (C57BL/6J mice [1]; Table 7, 9 Gy, Day 8): 3
- Number of mice surviving (C57BL/6J mice [1]; Table 7, 9 Gy, Day 9): 3
- Number of mice surviving (C57BL/6J mice [1]; Table 7, 9 Gy, Day 10): 3
- Number of mice surviving (C57BL/6J mice [1]; Table 7, 9 Gy, Day 11): 3
- Number of mice surviving (C57BL/6J mice [1]; Table 7, 9 Gy, Day 12): 2
- Number of mice surviving (C57BL/6J mice [1]; Table 7, 9 Gy, Day 13): 2
- Number of mice surviving (C57BL/6J mice [1]; Table 7, 9 Gy, Day 14): 1
- Number of mice surviving (C57BL/6J mice [1]; Table 7, 9 Gy, Day 15): 0
- Number of mice surviving (C57BL/6J mice [1]; Table 7, 11 Gy, Day 5): 3
- Number of mice surviving (C57BL/6J mice [1]; Table 7, 11 Gy, Day 6): 3
- Number of mice surviving (C57BL/6J mice [1]; Table 7, 11 Gy, Day 7): 3
- Number of mice surviving (C57BL/6J mice [1]; Table 7, 11 Gy, Day 8): 3
- Number of mice surviving (C57BL/6J mice [1]; Table 7, 11 Gy, Day 9): 2
- Number of mice surviving (C57BL/6J mice [1]; Table 7, 11 Gy, Day 10): 0
- Number of mice surviving (C57BL/6J mice [1]; Table 8, 11 Gy, 1 dose daily for 7 days, Day 5): 3
- Number of mice surviving (C57BL/6J mice [1]; Table 8, 11 Gy, 1 dose daily for 7 days, Day 6): 3
- Number of mice surviving (C57BL/6J mice [1]; Table 8, 11 Gy, 1 dose daily for 7 days, Day 7): 3
- Number of mice surviving (C57BL/6J mice [1]; Table 8, 11 Gy, 1 dose daily for 7 days, Day 8): 2
- Number of mice surviving (C57BL/6J mice [1]; Table 8, 11 Gy, 1 dose daily for 7 days, Day 9): 1
- Number of mice surviving (C57BL/6J mice [1]; Table 8, 11 Gy, 1 dose daily for 7 days, Day 10): 0
- Number of mice surviving (C57BL/6J mice [1]; Table 8, 11 Gy, 1 dose daily, continuous every day, Day 5): 3
- Number of mice surviving (C57BL/6J mice [1]; Table 8, 11 Gy, 1 dose daily, continuous every day, Day 6): 3
- Number of mice surviving (C57BL/6J mice [1]; Table 8, 11 Gy, 1 dose daily, continuous every day, Day 7): 3
- Number of mice surviving (C57BL/6J mice [1]; Table 8, 11 Gy, 1 dose daily, continuous every day, Day 8): 3
- Number of mice surviving (C57BL/6J mice [1]; Table 8, 11 Gy, 1 dose daily, continuous every day, Day 9): 2
- Number of mice surviving (C57BL/6J mice [1]; Table 8, 11 Gy, 1 dose daily, continuous every day, Day 10): 0
- Number of mice surviving (C57BL/6J mice [1]; Table 8, 11 Gy, 7 days, 2 dose daily, Day 5): 3
- Number of mice surviving (C57BL/6J mice [1]; Table 8, 11 Gy, 7 days, 2 dose daily, Day 6): 3
- Number of mice surviving (C57BL/6J mice [1]; Table 8, 11 Gy, 7 days, 2 dose daily, Day 7): 3
- Number of mice surviving (C57BL/6J mice [1]; Table 8, 11 Gy, 7 days, 2 dose daily, Day 8): 3
- Number of mice surviving (C57BL/6J mice [1]; Table 8, 11 Gy, 7 days, 2 dose daily, Day 9): 2
- Number of mice surviving (C57BL/6J mice [1]; Table 8, 11 Gy, 7 days, 2 dose daily, Day 10): 0
- PGE2 levels in the medium, ranking (A549 cells; 100 nM drug, 15-PGDH inhibitors): next highest level of PGE2
- Effect on PGE2 levels in medium, in words (A549 cells; IL1-beta stimulated A549 cells): clear inhibition of 15-PGDH activity
- PGE2 levels achieved (A549 cells; IL-1β 16 h, compound 8 h, highest level of titration): 3000 pg/mL
- Survival of transplanted mice, in words (C57BL/6J mice [2]; 5 mg/kg IP twice daily): promoted survival of mice receiving a bone marrow transplant
- Mouse survival (number of surviving mice) (C57BL/6J mice [2]; 1 × 10^5 cells, Day 1): 3
- Mouse survival (number of surviving mice) (C57BL/6J mice [2]; 1 × 10^5 cells, Day 2): 3
- Mouse survival (number of surviving mice) (C57BL/6J mice [2]; 1 × 10^5 cells, Day 3): 3
- Mouse survival (number of surviving mice) (C57BL/6J mice [2]; 1 × 10^5 cells, Day 4): 2
- Mouse survival (number of surviving mice) (C57BL/6J mice [2]; 1 × 10^5 cells, Day 5): 1
- Mouse survival (number of surviving mice) (C57BL/6J mice [2]; 1 × 10^5 cells, Day 6): 0
- Mouse survival (number of surviving mice) (C57BL/6J mice [2]; 2 × 10^5 cells, Day 1): 3
- Mouse survival (number of surviving mice) (C57BL/6J mice [2]; 2 × 10^5 cells, Day 2): 3
- Mouse survival (number of surviving mice) (C57BL/6J mice [2]; 2 × 10^5 cells, Day 3): 3
- Mouse survival (number of surviving mice) (C57BL/6J mice [2]; 2 × 10^5 cells, Day 4): 3
- Mouse survival (number of surviving mice) (C57BL/6J mice [2]; 2 × 10^5 cells, Day 5): 3
- Mouse survival (number of surviving mice) (C57BL/6J mice [2]; 2 × 10^5 cells, Day 6): 2
- Mouse survival (number of surviving mice) (C57BL/6J mice [2]; 2 × 10^5 cells, Day 7): 2
- Mouse survival (number of surviving mice) (C57BL/6J mice [2]; 2 × 10^5 cells, Day 8): 2
- Mouse survival (number of surviving mice) (C57BL/6J mice [2]; 2 × 10^5 cells, Day 9): 2
- Mouse survival (number of surviving mice) (C57BL/6J mice [2]; 2 × 10^5 cells, Day 10): 2
- Mouse survival (number of surviving mice) (C57BL/6J mice [2]; 2 × 10^5 cells, Day 11): 2
- Mouse survival (number of surviving mice) (C57BL/6J mice [2]; 2 × 10^5 cells, Day 12): 1
- Mouse survival (number of surviving mice) (C57BL/6J mice [2]; 2 × 10^5 cells, Day 13): 0
- Mouse survival (number of surviving mice) (C57BL/6J mice [2]; 5 × 10^5 cells, Day 1): 3
- Mouse survival (number of surviving mice) (C57BL/6J mice [2]; 5 × 10^5 cells, Day 2): 3
- Mouse survival (number of surviving mice) (C57BL/6J mice [2]; 5 × 10^5 cells, Day 3): 3
- Mouse survival (number of surviving mice) (C57BL/6J mice [2]; 5 × 10^5 cells, Day 4): 3
- Mouse survival (number of surviving mice) (C57BL/6J mice [2]; 5 × 10^5 cells, Day 5): 3
- Mouse survival (number of surviving mice) (C57BL/6J mice [2]; 5 × 10^5 cells, Day 6): 3
- Mouse survival (number of surviving mice) (C57BL/6J mice [2]; 5 × 10^5 cells, Day 7): 3
- Mouse survival (number of surviving mice) (C57BL/6J mice [2]; 5 × 10^5 cells, Day 8): 2
- Mouse survival (number of surviving mice) (C57BL/6J mice [2]; 5 × 10^5 cells, Day 9): 2
- Mouse survival (number of surviving mice) (C57BL/6J mice [2]; 5 × 10^5 cells, Day 10): 2
- Mouse survival (number of surviving mice) (C57BL/6J mice [2]; 5 × 10^5 cells, Day 11): 2
- Mouse survival (number of surviving mice) (C57BL/6J mice [2]; 5 × 10^5 cells, Day 12): 2
- Mouse survival (number of surviving mice) (C57BL/6J mice [2]; 5 × 10^5 cells, Day 13): 2
- Mouse survival (number of surviving mice) (C57BL/6J mice [2]; 5 × 10^5 cells, Day 19): 2
- Percent blood chimerism of CD45.2 marked cells [3]: significantly increased
- V9M reporter activity ([…]) [4]: 93.16%
- V9M reporter activity ([…]) ([4]; 100 = doubling): 98.24%
